Laboratory results taken from article PMC4633953, “FR171456 is a specific inhibitor of mammalian NSDHL and yeast Erg26p” (Nature Communications, 2015).
Where “and” joins values, the source holds several entries; their conditions need not be identical. Equal values may be shown once. Entries after “also recorded” stand apart in the source; their conditions may differ.

Assays:
S. cerevisiae = assay: Yeast fermentation with FR171456 and metabolic profiling for substrate accumulation; type: cell-based
Experimental: In the fermentation experiment, a single yeast colony was grown in 10 ml YP with galactose (2%) & Raffinose (1%) for 5 h (OD 1.0) at 30 °C. An inoculum (70 μl) from the same culture was used to inoculate 400 ml YP-gal (2%)+Raffinose (1%). This culture was then grown overnight at 30 °C. The OD at this point was 0.7. This culture was used to seed 20-l fermenter maintained at 30 °C. When OD in the fermenter was 0.7, then 1466, nM (IC80) of FR171456 was added to the fermenter. The cell pellets (3.8 g) were harvested after 7 h. Erg26p substrate (1.95 mg) was obtained by lipid extraction with ethylacetate and methanol.
Lipid extracts from yeast cells were prepared as described as above. Ergosterol and 4α-methylzymosterol-4-carboxylic acid were analysed on an UltiMate 3000 RS LC (Thermo Fisher Scientific, Waltham, MA, USA) coupled to a 4000 QTRAP (AB Sciex, Foster City, CA, USA), which was equipped with a ESI-Turbo Spray ion source (AB Sciex). […]
Ion source parameters and compound-dependent instrument parameters were optimized by infusing pure standard solutions of ergosterol and 4α-methylzymosterol-4-carboxylic acid, respectively. […] All mass transitions were monitored for 65 msec per SRM scan with a unit/unit resolution for Q1/Q3. […]

[1] = tested on: ergosterol pathway intermediates in C. albicans SC5314; assay: Focused metabolomics: 13C-labelled ergosterol pathway intermediates in C. albicans; type: cell-based; settings: increasing doses
Experimental: For ^13C- labelling studies, the wild type C. albicans strain SC5314 was obtained from ATCC (Manassas, VA) and was cultured at 30 °C in YPD broth (1% yeast extract, 2% peptone, 2% dextrose) or Synthetic Medium (3% glycerol, 0.1% glucose, 65 mM NH4Cl, 1.7 mM NaCl, 7 mM KH2PO4, 1 mM CaCl2, 0.5 mM MgSO4).
Approximately 1.25 × 10^8 C. albicans cells from a saturated YPD culture were inoculated into 100 ml Synthetic Medium (SM) and grown at 30 °C to an OD of 1.0. Cells were washed once in modified SM (25 mM KPO4 pH 7.0, with glucose omitted) and suspended to 5 OD600 units per ml in modified SM.
Labelling reactions were performed in 12-ml glass tubes with PTFE-lined caps (Corning) and containing 1 ml cell suspension (∼6 × 10^7 cells), 10 μl DMSO or 10 μl compound dissolved in DMSO, 12 μl 1M D-Glucose (U^-13C6 glucose), and 10 μl 1 M (1,2^-13C2) sodium acetate (Cambridge Isotope Laboratories, Inc). Before LC-MS analysis, dried lipid extracts were dissolved in 500 μl methanol, vortexed and sonicated for 10 min.
Squalene, ergosterol, lanosterol and zymosterol were quantified using the tandem mass spectrometer API4000 triple quadrupole (AB Sciex) with atmospheric pressure chemical ionization (APCI), interfaced to an Agilent LC.
Cells (∼6 × 10^7) and compounds were preincubated 15 min at 30 °C (without shaking) before the addition of labelled substrates. Labelling was performed at 30 °C with shaking for 4 h. Reactions were stopped by adding 1 ml 30% KOH, 1 ml 100% ethanol, and 0.2 ml 2% pyrogallol. Samples were mixed and then heated at 80 °C for 30 min, then cooled to room temperature. Non-saponifiable lipids were extracted two times in petroleum ether, washed with water, dried under nitrogen gas and stored at −80 °C.
For compound calibration, 2 μM solutions in 0.1% formic acid were directly infused into the mass spectrometer. Ergosterol, lanosterol and zymosterol undergo dehydration and their molecular species are detected as [M+H-H2O]^+ while squalene is detected as [M+H]^+. Supplementary Table 4 lists the multiple reaction monitoring parameters of the sterols and squalene, as well as the ^13C incorporated metabolites. The mass spectrometer source parameters are the following: CUR=40, GS1=60, NC=4.5. TEM=450 CAD=4. A mobile phase of 0.2% formic acid in methanol and isocratic run at 0.4 ml min^−1 was employed to separate the metabolites on a Waters XBridge C18 3.5 μm 2.1 × 50 mm column. The run time was 4.5 min.

R. oryzae = assay: Combination with clinical antifungal agents (Loewe synergy); type: cell-based; settings: >1 is synergistic
503 cancer cell lines = assay: Compound activity profile against 503 cancer cell lines (72 h, Cell TiterGlo); type: cell-based; settings: sensitive = Amax <50% and IC50 <5 μM
Experimental: Supplementary figure 1. […] A plot […]
of normalized maximal inhibition (Y axis) versus the inflection point (X Axis) of a standard dose-response curve for increasing concentrations of FR171456 incubated with 503 mammalian cell lines in culture for 72h (each symbol), as determined by Cell TiterGlo (Promega)

hepatic sterol synthesis = tested on: hepatic sterol synthesis; set-up: method as in PMID 15217190; settings: rats, short term experiments, up to 10 mg kg^−1 ref 14; cited from earlier work
Candida glabrata NF2905 = assay: Antifungal MIC; type: cell-based; settings: Nakaseomyces glabratus
[2] = tested on: Fusarium verticillioides NF4901; assay: Antifungal MIC; type: cell-based

Question: For `C=C(CCC(C)C1CCC2C1(C)CC(O)C13CC14C(=O)CC(O)C(C)(C(=O)O)C4C(=O)CC23O)C(C)C` [FR171456, (1R,2aR,3R,5aR,5bS,7aR,8S,9S,11aS,12aR)-1,5b,9-trihydroxy-2a,8-dimethyl-3-((R)-6-methyl-5-methyleneheptan-2-yl)-7,11-dioxohexadecahydrocyclopenta[a]cyclopropa[e]-phenanthrene-8-carboxylic acid], which “Erg26p precursor (4α-methylzymosterol-4-carboxylic acid) level” value (S. cerevisiae; FR171456 1466 nM for 7 h) is on record?
Answer: accumulates

Question: And the IC80 (S. cerevisiae; Saccharomyces cerevisiae, yeast in YP-gal (2%)+Raffinose (1%), fermenter 30 °C)?
Answer: 1470 nM

Question: And the “effect on 13C-labelled ergosterol” value [1]?
Answer: dose-dependent reduction

Question: And the “effect on 13C-labelled lanosterol” value [1]?
Answer: increase

Question: What about the “effect on 13C-labelled zymosterol” value [1] of the same compound?
Answer: dose-dependent reduction

Question: What about the Loewe synergy score (R. oryzae; combination with Amphotericin B) of the same compound?
Answer: < 1

Question: What about the Loewe synergy score (R. oryzae; combination with posaconazole) of the same compound?
Answer: < 1

Question: And the “anti-proliferative activity across cell line panel” value (503 cancer cell lines)?
Answer: not anti-proliferative; also recorded: unaffected; also recorded: only five cell lines were sensitive

Question: What about the “dose giving significant reduction in hepatic sterol synthesis” value (hepatic sterol synthesis) of the same compound?
Answer: 0.1 mg/kg

Question: And the MIC (Candida glabrata NF2905)?
Answer: 16 µg/mL and 36 µM

Question: What about the MIC [2] of the same compound?
Answer: 32 µg/mL and 72 µM
